Assay results reported in patent US20090110720A1, “Use of compounds for the prevention of drug-induced cell toxicity” (priority 2005, published 2009).

Biological target: megalin (Oryctolagus cuniculus, UniProt Z9GY10I8Y6)
Test: Inhibition of gentamicin binding to immobilized megalin by surface plasmon resonance (Biacore 2000)
Details: 1 mM gentamicin co-injected; megalin purified from rabbit kidneys immobilized on chip; pH 7.4 buffer; FIG. 3; read-out: antagonist concentration at which 50% inhibition of gentamicin binding is obtained
Description: Inhibition of gentamicin binding to immobilized megalin by p-xylylene diamine was assessed by surface plasmon resonance (SPR) analysis on a Biacore 2000 instrument (Biacore, Uppsala, Sweden). Megalin purified from rabbit kidneys as described in Birn et al. (J. Biol. Chem., 1997, Vol. 272, No. 42, 26497-26504) was immobilized in a concentration of 28-40 fmol/mm^2. Samples were dissolved in 10 mM Hepes, 150 mM NaCl, 1.5 mM CaCl2, 1 mM EGTA, 0.005% Tween-20 pH 7.4. The same buffer was used as running buffer. At time zero, p-xylylene diamine at the concentrations indicated (FIG. 3) were applied to the chip and binding as expressed in relative response units (RU), i.e. the difference in response between megalin and a control flow channel, was measured. After 700 sec., 1 mM gentamicin was co-injected with buffer alone or various concentrations of p-xylylene diamine. Inhibition of gentamicin binding is scored as the difference in RU units obtained by injection of gentamicin alone and in the presence of the antagonist. Regeneration of the sensor chip after each analysis cycle was performed with 1.6 M glycine-HCl buffer pH 3.0.
50% inhibition is obtained at an antagonist concentration of about 0.1 mM.

Sequence of megalin (Z9GY10I8Y6 26-4660 limits assumed): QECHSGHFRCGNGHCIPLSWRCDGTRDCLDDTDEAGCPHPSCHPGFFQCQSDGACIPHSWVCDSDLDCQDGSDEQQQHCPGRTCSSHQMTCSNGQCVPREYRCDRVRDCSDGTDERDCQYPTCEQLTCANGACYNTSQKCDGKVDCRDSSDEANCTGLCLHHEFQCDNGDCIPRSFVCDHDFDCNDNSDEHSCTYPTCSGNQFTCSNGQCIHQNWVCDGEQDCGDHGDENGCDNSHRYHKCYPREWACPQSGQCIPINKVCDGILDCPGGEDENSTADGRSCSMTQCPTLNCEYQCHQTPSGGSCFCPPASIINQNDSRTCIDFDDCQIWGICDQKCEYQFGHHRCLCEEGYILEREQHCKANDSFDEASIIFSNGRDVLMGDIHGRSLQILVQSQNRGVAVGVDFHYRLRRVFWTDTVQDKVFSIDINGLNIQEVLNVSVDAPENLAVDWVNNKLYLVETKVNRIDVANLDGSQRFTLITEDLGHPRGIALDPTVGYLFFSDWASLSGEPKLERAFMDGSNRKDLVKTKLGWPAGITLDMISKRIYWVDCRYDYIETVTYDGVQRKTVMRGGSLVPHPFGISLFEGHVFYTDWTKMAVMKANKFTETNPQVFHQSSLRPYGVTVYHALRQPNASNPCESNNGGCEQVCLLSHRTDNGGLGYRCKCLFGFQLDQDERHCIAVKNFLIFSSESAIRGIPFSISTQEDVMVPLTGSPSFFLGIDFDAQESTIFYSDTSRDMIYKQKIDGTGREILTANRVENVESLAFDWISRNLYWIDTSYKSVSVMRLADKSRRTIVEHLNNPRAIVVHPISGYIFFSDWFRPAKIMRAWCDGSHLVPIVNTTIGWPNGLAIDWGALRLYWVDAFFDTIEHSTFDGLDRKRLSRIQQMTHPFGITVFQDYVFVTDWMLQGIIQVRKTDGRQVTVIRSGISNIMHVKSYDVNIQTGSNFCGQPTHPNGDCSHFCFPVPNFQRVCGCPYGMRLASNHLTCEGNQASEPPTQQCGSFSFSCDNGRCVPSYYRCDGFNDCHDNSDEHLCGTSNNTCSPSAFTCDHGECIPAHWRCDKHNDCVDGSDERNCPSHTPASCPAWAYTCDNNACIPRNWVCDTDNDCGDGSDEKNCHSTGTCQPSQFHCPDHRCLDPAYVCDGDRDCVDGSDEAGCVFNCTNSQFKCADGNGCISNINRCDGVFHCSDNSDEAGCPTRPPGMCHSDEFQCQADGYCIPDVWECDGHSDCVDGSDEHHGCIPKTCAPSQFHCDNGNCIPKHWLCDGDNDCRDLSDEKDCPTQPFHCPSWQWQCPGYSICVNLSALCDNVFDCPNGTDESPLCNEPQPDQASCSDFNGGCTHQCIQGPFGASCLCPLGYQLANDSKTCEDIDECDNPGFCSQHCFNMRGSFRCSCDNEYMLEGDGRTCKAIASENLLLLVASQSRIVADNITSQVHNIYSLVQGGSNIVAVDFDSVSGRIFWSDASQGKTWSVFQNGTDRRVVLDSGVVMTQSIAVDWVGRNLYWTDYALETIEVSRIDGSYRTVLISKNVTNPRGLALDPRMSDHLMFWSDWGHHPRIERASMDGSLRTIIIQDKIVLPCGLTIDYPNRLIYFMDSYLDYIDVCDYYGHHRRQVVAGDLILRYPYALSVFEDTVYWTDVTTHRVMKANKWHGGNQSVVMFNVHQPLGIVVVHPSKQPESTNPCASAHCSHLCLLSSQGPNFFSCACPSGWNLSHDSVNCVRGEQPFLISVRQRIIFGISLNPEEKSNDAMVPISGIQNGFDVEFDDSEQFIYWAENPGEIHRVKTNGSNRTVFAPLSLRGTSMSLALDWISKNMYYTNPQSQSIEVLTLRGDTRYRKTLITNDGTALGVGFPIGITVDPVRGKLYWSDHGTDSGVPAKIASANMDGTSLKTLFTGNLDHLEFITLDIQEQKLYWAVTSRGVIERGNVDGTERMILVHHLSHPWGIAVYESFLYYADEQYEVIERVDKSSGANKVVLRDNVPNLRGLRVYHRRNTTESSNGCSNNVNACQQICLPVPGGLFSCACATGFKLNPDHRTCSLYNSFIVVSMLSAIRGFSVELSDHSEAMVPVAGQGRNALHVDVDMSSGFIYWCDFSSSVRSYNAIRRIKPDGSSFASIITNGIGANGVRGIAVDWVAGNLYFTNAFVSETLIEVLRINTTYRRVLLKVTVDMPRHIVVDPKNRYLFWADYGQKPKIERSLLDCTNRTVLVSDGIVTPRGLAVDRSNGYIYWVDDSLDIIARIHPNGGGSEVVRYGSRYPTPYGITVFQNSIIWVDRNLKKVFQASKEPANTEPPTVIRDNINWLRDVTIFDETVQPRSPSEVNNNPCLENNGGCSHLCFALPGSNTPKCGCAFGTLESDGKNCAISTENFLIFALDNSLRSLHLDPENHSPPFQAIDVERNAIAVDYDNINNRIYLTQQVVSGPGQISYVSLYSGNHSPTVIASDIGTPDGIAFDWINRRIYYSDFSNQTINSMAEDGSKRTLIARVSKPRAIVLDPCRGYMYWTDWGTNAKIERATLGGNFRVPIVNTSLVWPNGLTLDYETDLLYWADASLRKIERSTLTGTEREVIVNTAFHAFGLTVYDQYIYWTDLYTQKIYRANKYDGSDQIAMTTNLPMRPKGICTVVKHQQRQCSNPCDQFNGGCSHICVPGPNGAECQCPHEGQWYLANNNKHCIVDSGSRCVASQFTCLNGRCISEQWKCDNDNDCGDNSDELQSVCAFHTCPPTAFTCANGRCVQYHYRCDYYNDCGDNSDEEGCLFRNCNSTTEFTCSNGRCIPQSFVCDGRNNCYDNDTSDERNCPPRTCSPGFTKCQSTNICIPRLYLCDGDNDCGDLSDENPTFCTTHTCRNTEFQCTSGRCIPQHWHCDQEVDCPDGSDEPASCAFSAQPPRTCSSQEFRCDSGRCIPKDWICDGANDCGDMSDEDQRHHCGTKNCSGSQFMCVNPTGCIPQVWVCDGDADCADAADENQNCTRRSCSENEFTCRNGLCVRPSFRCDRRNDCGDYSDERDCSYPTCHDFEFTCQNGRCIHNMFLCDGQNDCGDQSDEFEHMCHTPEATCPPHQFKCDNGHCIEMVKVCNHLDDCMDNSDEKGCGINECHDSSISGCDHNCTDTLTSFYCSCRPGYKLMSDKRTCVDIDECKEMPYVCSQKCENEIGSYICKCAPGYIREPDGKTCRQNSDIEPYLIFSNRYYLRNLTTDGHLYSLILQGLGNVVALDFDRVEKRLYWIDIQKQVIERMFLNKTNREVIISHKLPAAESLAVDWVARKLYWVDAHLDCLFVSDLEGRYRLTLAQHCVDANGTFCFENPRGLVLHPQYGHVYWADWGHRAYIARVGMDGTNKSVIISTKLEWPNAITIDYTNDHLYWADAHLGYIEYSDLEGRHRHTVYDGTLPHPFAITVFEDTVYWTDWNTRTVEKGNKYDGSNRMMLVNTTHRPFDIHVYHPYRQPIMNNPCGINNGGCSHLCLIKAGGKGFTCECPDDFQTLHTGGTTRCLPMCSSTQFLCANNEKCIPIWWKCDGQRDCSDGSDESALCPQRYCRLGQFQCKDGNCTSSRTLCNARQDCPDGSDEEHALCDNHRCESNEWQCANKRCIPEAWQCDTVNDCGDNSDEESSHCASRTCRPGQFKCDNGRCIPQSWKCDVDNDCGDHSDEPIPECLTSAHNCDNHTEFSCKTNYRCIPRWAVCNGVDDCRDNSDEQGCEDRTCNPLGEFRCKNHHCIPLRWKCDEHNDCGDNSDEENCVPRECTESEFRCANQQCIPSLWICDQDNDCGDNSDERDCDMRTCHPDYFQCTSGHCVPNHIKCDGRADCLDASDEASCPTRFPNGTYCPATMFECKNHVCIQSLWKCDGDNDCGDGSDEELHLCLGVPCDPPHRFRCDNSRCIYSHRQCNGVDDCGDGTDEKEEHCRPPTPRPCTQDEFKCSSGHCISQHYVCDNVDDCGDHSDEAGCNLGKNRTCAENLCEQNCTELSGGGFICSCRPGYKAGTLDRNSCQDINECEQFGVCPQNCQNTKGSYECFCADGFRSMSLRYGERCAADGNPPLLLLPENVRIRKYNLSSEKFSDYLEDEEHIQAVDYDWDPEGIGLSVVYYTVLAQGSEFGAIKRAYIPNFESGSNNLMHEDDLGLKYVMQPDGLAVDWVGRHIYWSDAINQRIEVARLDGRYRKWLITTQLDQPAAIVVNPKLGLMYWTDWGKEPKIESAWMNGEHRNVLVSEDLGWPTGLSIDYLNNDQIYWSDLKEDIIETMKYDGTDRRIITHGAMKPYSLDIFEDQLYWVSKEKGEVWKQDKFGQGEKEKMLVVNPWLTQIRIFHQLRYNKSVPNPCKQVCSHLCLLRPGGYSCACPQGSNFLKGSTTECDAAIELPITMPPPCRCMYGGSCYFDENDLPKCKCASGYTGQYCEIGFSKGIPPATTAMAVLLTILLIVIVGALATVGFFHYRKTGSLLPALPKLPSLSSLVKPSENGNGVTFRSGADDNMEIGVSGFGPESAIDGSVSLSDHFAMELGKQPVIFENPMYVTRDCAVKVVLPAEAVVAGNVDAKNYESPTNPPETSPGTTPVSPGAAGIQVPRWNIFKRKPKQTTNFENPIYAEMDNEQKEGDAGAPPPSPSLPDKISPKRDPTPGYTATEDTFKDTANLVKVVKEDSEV

NCc1ccc(CN)cc1 [RC043, p-xylylene diamine]
IC50: ~100 µM
